Reference: the NIST ThermoML archive (doi:10.1016/j.jct.2009.01.010)
“And” between values parts separate entries of the source, which are not always exact repeats. Identical values can stand only once.

What was measured:
[1] = xn = mol fraction of the nth substance listed; settings: 298.15 K, 101 kPa, Liquid; for speed of sound: Linear variable-path acoustic interferometer; for mass density: Pycnometric method
[2] = refractive index (Na D-line) (dimensionless); xn = mol fraction of the nth substance listed; settings: 298.15 K, 101 kPa, Liquid, Abbe refractometer
[3] = refractive index (Na D-line) (dimensionless); settings: 298.15 K; 101.33 kPa; Liquid; Abbe refractometer
[4] = 298.15 K, 101 kPa, Liquid; for mass density: Pycnometric method

COCCO [2-methoxyethan-1-ol] + O
Settings | mass density, [1] [kg/m3] | refractive index, [2] | speed of sound, [1] [m/s]
x1 = 0.0202 | 999.08 | 1.34 | 1546.5
x1 = 0.04 | 1001.08 | 1.346 | 1581
x1 = 0.0539 | 1002.4 | 1.35 | 1600.9
x1 = 0.0822 | 1004.71 | 1.357 | 1636.5
x1 = 0.101 | 1005.84 | 1.361 | 1643.7
x1 = 0.1509 | 1007.02 | 1.37 | 1654.7
x1 = 0.2036 | 1005.67 | 1.378 | 1641.7
x1 = 0.3025 | 999.82 | 1.386 | 1587.3
x1 = 0.4033 | 992.74 | 1.391 | 1532.3
x1 = 0.5009 | 985.91 | 1.394 | 1488.5
x1 = 0.5514 | 982.57 | 1.395 | 1470.9
x1 = 0.6976 | 974 | 1.396 | 1418.8
x1 = 0.7855 | 969.57 | 1.398 | 1392
x1 = 0.889 | 964.87 | 1.398 | 1369.3
x1 = 1 | 960.23 | 1.4002 | 1341.7

CCOCCOCCO [3,6-dioxa-1-octanol]
Settings | mass density [kg/m3] | refractive index
[3] | – | 1.425
[4] | 984.6 | –

Settings | speed of sound [m/s]
[4], Linear variable-path acoustic interferometer | 1378

CCOCCOCCO [3,6-dioxa-1-octanol] + O
Settings | mass density, [1] [kg/m3] | refractive index, [2] | speed of sound, [1] [m/s]
x1 = 0.013 | 1001.37 | 1.3424 | 1562
x1 = 0.025 | 1005.93 | 1.3515 | 1602
x1 = 0.05 | 1013.24 | 1.3654 | 1656
x1 = 0.06 | 1015.27 | 1.3695 | 1670.5
x1 = 0.076 | 1017.84 | 1.376 | 1670
x1 = 0.101 | 1020.05 | 1.3837 | 1658
x1 = 0.152 | 1019.56 | 1.396 | 1621
x1 = 0.202 | 1017.51 | 1.4028 | 1601.9
x1 = 0.302 | 1011.81 | 1.4108 | 1549.5
x1 = 0.402 | 1005.59 | 1.414 | 1500
x1 = 0.519 | 999.21 | 1.4198 | 1460
x1 = 0.59 | 996.2 | 1.4203 | 1442
x1 = 0.775 | 990.78 | 1.4228 | 1412
x1 = 0.852 | 988.76 | 1.4235 | 1398
x1 = 1 | 984.6 | 1.425 | 1378

O [water]
Settings | mass density [kg/m3] | refractive index
[3] | – | 1.333 and 1.3325
[4] | 999.704 | –

O [water] + CCOCCO
x2 = 0
Settings | mass density [kg/m3] | refractive index
[1] | 999.704 | –
[2] | – | 1.3325

O [water] + CCOCCOCCO
x2 = 0
Settings | mass density [kg/m3] | refractive index
[1] | 999.704 | –
[2] | – | 1.3325

O [water] + COCCO
x2 = 0
Settings | mass density [kg/m3] | refractive index
[1] | 999.704 | –
[2] | – | 1.333

O [water] + COCCOCCO
x2 = 0
Settings | mass density [kg/m3] | refractive index
[1] | 999.704 | –
[2] | – | 1.333
